Laboratory results published in patent US9314464B2, “Compounds and compositions as protein kinase inhibitors” (Novartis AG, priority 2009, dated 2016).

Columns and labels:
B-Raf V600E = B-Raf V600E (Homo sapiens (Human), UniProt P15056, V600E); assay: B-Raf V600E/Mek Amplified Luminescence Proximity Homogeneous Assay (B-Raf V600E biochemical); conditions: read-out: BRAF V600E biochemical IC50
Description: The plate was incubated for 60 minutes at room temperature.
The B-Raf kinase activity reaction was started by the addition of 10 μl per well of 2×ATP (10 μM) diluted in assay buffer. After 3 hours, the reactions were stopped with the addition of 10 μl of stop reagent (60 mM EDTA, 0.01% Tween20). Phosphorylated product was measured using a rabbit anti-p-MEK (Cell Signaling, #9121) antibody and the Alpha Screen IgG (ProteinA) detection Kit (PerkinElmer #6760617R), by the addition of 30 μl to the well of a mixture of the antibody (1:2000 dilution) and detection beads (1:1000 dilution of both beads) in bead buffer (50 mM Tris, pH 7.5, 0.01% Tween20). The additions were carried out under dark conditions to protect the detection beads from light. A lid was placed on top of the plate and the plate was incubated for 1 hour at room temperature. The luminescence was read on a PerkinElmer Envision instrument. The concentration of each compound for 50% inhibition (IC50) was calculated by non-linear regression using XL Fit data analysis software.

[1] = Liver Microsomal Clearance Assay, human; format: in vitro ADME; conditions: extraction ratio, human liver microsomes
Description: (§1) Liver Microsomal Clearance Assay
(§2) The in vitro microsomal clearance assay is designed to assess potential risks associated with hepatic metabolic stability of compounds. The test compound (1 μM) was incubated with liver microsomes (0.5 mg/mL) from different species (mouse, rat, monkey, dog and human) and NADPH (1 mM) in 100 mM potassium phosphate buffer at 37° C. At specific reaction time points (0, 5, 10 and 30 minutes), reaction aliquots were removed and reactions were terminated by addition of ice cold acetonitrile containing mass spectrometry internal standard. The samples were centrifuged and the supernatants were analyzed by LC-MS/MS. In vitro metabolic half-life (t1/2, min) and intrinsic clearance (CLint, μL/min/mg) are based on the rate and extent of metabolism of the test compound as determined by the disappearance of the parent compound from the reaction mixture. These values may be scaled to predict hepatic metabolic clearance rate (CLh, mL/min/kg) and extraction ratio (ER, expressed as a ratio of the predicted hepatic metabolic clearance to hepatic blood flow in that species). In general, compounds with high predicted CLint or ER in vitro are considered to be at high risk for exposure-limiting metabolism in vivo.

[2] = Liver Microsomal Clearance Assay, mouse; format: in vitro ADME; conditions: extraction ratio, mouse liver microsomes
Description: as §1, §2

[3] = In Vivo Pharmacokinetics Assay in mouse; conditions: for bioavailability at 24 h: 10 mg/kg, PO/IV 10/2 mg/kg; for clearance at 24 h: IV 2 mg/kg
Description: (§3) Full pharmacokinetics study: Male Balb/c mice (n=3, body weights 22-25 g) or male Wistar rats (n=3, body weights 250-300 g) were administered the test compound intravenously via the lateral tail vein or orally via gavage. The formulation was typically a 2.5 mg/mL solution of the compound in 75% PEG300 and 25% D5W. Six blood samples of 50 μL each were collected serially for 24 h after dosing. The blood samples were centrifuged to separate the plasma. Plasma samples were analyzed and quantified by LC-MS/MS.
as §3, with “Rapid” for “Full”, “intravenously (IV)” for “intravenously”, “orally (PO)” for “orally”, “Blood” for “The blood”, “and plasma separated and pooled across” for “to separate”, “three animals at each time point per dose route.” for “plasma.”
For both full and rapid pharmacokinetics studies, the following parameters were calculated by non-compartmental regression analysis using Winnonlin 5.0 software (Pharsight, Mountain View, Calif., USA): plasma clearance (Cl), plasma maximum concentration (Cmax), plasma area-under-the-concentration-time-curve (AUC0-inf), and percent oral bioavailability (F %).

A375 cells = assay: In Vivo Efficacy - 14 Day A375 Mouse Xenograft Model
Description: A375 cells were grown in sterile conditions in a 37° C. incubator with 5% CO2 for two to four weeks. The cells were cultured in RPMI-1640 media supplemented with 10% FBS. Cells were passaged twice weekly with 0.05% Trypsin/EDTA. On the day of implant, cells were harvested in HBSS (Hank's Balanced Salt Solution). Female Nu/Nu mice (Charles River, 10-11 weeks at start of study) were implanted with 5×10^6 A375 cells/mouse in 50% matrigel, 0.2 mL SQ right flank on day 1. At 19 days post-implant, mice were randomized into 6 groups (9 mice per group), with an average tumor volume of 215 mm^3 and average body weight of 24 g. Test compound was dosed BID for 14 days commencing on day 19 using a dosing volume 0.2 mL per dose, with compound formulated at the appropriate concentration to attain the desired dose level. Clinical observations were made daily. Tumor volume and body weight were measured twice weekly.
Tumor volume results were assessed at 14 days post-first dose. Partial response is defined as having tumor growth 20-50% of control tumor growth. Stable disease is defined as having final tumor volume within +/−20% of initial tumor size. Partial regression is defined as having final tumor volume<80% of initial tumor volume.

SW620 cells = assay: SW620 Cell Viability Assay (Cell Titer Glo); format: cell-based; conditions: FIG. 1, compound alone
Description: The present invention also includes combinations of the BRaf inhibitors disclosed in this invention with other agents. In particular, the present invention provides for combinations with MEK1/2 inhibitors. FIG. 1 illustrates that the addition of a MEK small molecule inhibitor can reverse the induced ERK signaling, cell growth and transformation caused by a Raf small molecule inhibitor.
SW620 cells were seeded in 1640 RPMI+10% FBS at a density of 1500 cells per 96-well in black walled, clear bottom tissue culture treated plates. Test compounds were serially diluted in DMSO then added to the cells (final DMSO concentration of 0.1%) and incubated at 37° C. and 5% CO2 for 4 days. To measure cell viability, cell plates were brought to room temperature, culture media was removed, and 200 μl of Cell Titer-Glo reagent (Promega, kit components mixed as per the manufacturer's protocol then diluted 1:2 with growth media) was added to each well. Plates were shaken for 5 minutes, then incubated at room temperature for 5 minutes, and the luminescence was measured (Trilux, Perkin Elmer).

[4] = male, Balb/c, plasma, PO 10 mg/kg

Sequence of B-Raf V600E (P15056 whole entry V600E): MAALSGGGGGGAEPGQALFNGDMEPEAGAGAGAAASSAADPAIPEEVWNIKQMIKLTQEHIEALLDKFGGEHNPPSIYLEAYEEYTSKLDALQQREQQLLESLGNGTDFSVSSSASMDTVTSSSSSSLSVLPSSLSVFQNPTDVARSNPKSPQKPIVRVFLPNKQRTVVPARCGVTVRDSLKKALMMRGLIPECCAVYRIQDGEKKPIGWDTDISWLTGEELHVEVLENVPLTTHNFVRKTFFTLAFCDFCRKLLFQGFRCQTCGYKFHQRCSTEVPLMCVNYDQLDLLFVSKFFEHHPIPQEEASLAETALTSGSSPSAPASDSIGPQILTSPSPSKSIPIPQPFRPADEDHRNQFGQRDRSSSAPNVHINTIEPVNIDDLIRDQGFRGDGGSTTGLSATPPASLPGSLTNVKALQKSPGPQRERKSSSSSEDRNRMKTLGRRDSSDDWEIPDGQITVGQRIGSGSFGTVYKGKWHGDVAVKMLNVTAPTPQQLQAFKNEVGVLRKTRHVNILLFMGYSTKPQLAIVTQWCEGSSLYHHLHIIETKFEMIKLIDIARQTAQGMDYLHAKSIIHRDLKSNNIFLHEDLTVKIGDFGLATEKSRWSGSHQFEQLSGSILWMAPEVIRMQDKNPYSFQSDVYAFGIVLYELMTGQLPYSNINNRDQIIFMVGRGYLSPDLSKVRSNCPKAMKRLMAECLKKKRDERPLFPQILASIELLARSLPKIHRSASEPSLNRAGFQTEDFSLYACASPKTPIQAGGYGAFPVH

Row | IC50 (B-Raf V600E) | ER Human [1] | ER Mouse [2] | bioavailability at 24 h ([3]; male, Balb/c, plasma) | clearance at 24 h ([3]; male, Balb/c, plasma) | AUC at 24 h [3, 4] | Cmax at 24 h [3, 4] | PO AUC ([3]; PO 10 mg/kg) | AUC ([3]; male, Balb/c, plasma, oral dose of 10 mg/kg) | SMILES | Tumor volume result (A375 cells; 1 mg/kg bid×14, 14 days post-first dose) | Tumor volume result (A375 cells; 3 mg/kg bid×14, 14 days post-first dose) | Tumor volume result (A375 cells; 10 mg/kg bid×14, 14 days post-first dose) | Tumor volume result (A375 cells; 20 mg/kg bid×14, 14 days post-first dose) | cellular proliferation in Cell Titer Glo assay (SW620 cells)
1 | 0.7 nM | 0.65 | 0.91 | 8 ± 7% | 5.94 ± 0.78 L/h/kg | 0.24 ± 0.21 µM·h | 0.15 ± 0.07 µM |  |  | CCCS(=O)(=O)Nc1ccc(F)c(-c2nn(C(C)C)cc2-c2ccnc(NC[C@H](C)NC(=O)OC)n2)c1F [Compound 7, Methyl N-[(2S)-1-[(4-{3-[2,6-difluoro-3-(propane-1-sulfonamido)phenyl]-1-(propan-2-yl)-1H-pyrazol-4-yl}pyrimidin-2-yl)amino]propan-2-yl]carbamate] |  |  |  |  | 
2 |  | <0.21 | 0.48 | 43 ± 6% | 0.258 ± 0.024 L/h/kg |  | 27 ± 4 µM | 30 ± 4 µM·h | 30 ± 4 µM·h | COC(=O)N[C@@H](C)CNc1nccc(-c2cn(C(C)C)nc2-c2cc(Cl)cc(NS(C)(=O)=O)c2F)n1 [Compound 9, Methyl N-[(2S)-1-({4-[3-(5-chloro-2-fluoro-3-methanesulfonamidophenyl)-1-(propan-2-yl)-1H-pyrazol-4-yl]pyrimidin-2-yl}amino)propan-2-yl]carbamate] | partial response (Partial response is defined as having tumor growth 20-50% of control tumor growth) | stable disease (Stable disease is defined as having final tumor volume within +/−20% of initial tumor size) | partial regression (Partial regression is defined as having final tumor volume<80% of initial tumor volume) | partial regression (Partial regression is defined as having final tumor volume<80% of initial tumor volume) | induction in cellular proliferation
